Assays:
[1] = tested on: Rattus norvegicus; experiment: Induction of diuresis activity in Rattus norvegicus albino (rat) assessed as urinary excretion at 20 mg/kg, po measured at 5-18 hr after drug administration by standard Lipschitz method against frusemide-treated control (reference value: 0.2 no unit); assay type: functional, Urine
[2] = tested on: Rattus norvegicus; experiment: Induction of diuresis in Rattus norvegicus albino (rat) assessed as total urinary output at 20 mg/kg, po measured at 5-18 hr after drug administration by standard Lipschitz method (reference value: 1.26 +/-0.049 ml); assay type: functional, Urine
[3] = tested on: Rattus norvegicus; experiment: Induction of diuresis in Rattus norvegicus albino (rat) assessed as total urinary output at 20 mg/kg, po measured at 0-5 hr after drug administration by standard Lipschitz method (reference value: 2.46 +/-0.125 ml); assay type: functional, Urine
[4] = tested on: Rattus norvegicus; experiment: Induction of diuresis in Rattus norvegicus albino (rat) assessed as urinary excretion at 20 mg/kg, po measured at 0-5 hr after drug administration by standard Lipschitz method (reference value: 98.40%); assay type: functional, Urine
[5] = tested on: Rattus norvegicus; experiment: Induction of diuresis in Rattus norvegicus albino (rat) assessed as urinary Na+ excretion at 20 mg/kg, po measured at 0-5 hr after drug administration by standard Lipschitz method (reference value: 0.90 +/-0.003 mEq/L); assay type: functional, Urine
[6] = tested on: Rattus norvegicus; experiment: Induction of diuresis in Rattus norvegicus albino (rat) assessed as urinary K+ excretion at 20 mg/kg, po measured at 0-5 hr after drug administration by standard Lipschitz method (reference value: 0.46 +/-0.006 mEq/L); assay type: functional, Urine
[7] = tested on: Rattus norvegicus; experiment: Induction of diuresis activity in Rattus norvegicus albino (rat) assessed as urinary excretion at 20 mg/kg, po measured at 0-5 hr after drug administration by standard Lipschitz method against frusemide-treated control (reference value: 0.5 no unit); assay type: functional, Urine
[8] = tested on: Rattus norvegicus; experiment: Induction of diuresis action in Rattus norvegicus albino (rat) assessed as urinary excretion at 20 mg/kg, po measured at 5-18 hr after drug administration by standard Lipschitz method against untreated control (reference value: 1 no unit); assay type: functional, Urine
[9] = tested on: Rattus norvegicus; experiment: Induction of diuresis in Rattus norvegicus albino (rat) assessed as urinary Cl- excretion at 20 mg/kg, po measured at 5-18 hr after drug administration by standard Lipschitz method (reference value: 0.38 +/-0.011 mEq/L); assay type: functional, Urine
[10] = tested on: Rattus norvegicus; experiment: Induction of diuresis action in Rattus norvegicus albino (rat) assessed as urinary excretion at 20 mg/kg, po measured at 0-5 hr after drug administration by standard Lipschitz method against untreated control (reference value: 1 no unit); assay type: functional, Urine
[11] = tested on: Rattus norvegicus; experiment: Induction of diuresis in Rattus norvegicus albino (rat) assessed as urinary excretion at 20 mg/kg, po measured at 5-18 hr after drug administration by standard Lipschitz method (reference value: 50.4%); assay type: functional, Urine
[12] = tested on: Rattus norvegicus; experiment: Induction of diuresis in Rattus norvegicus albino (rat) assessed as urinary K+ excretion at 20 mg/kg, po measured at 5-18 hr after drug administration by standard Lipschitz method (reference value: 0.22 +/-0.004 mEq/L); assay type: functional, Urine
[13] = tested on: Rattus norvegicus; experiment: Induction of diuresis in Rattus norvegicus albino (rat) assessed as urinary Na+ excretion at 20 mg/kg, po measured at 5-18 hr after drug administration by standard Lipschitz method (reference value: 0.65+/-0.006 mEq/L); assay type: functional, Urine
[14] = tested on: Rattus norvegicus; experiment: Induction of diuresis in Rattus norvegicus albino (rat) assessed as urinary Cl- excretion at 20 mg/kg, po measured at 0-5 hr after drug administration by standard Lipschitz method (reference value: 0.46 +/-0.005 mEq/L); assay type: functional, Urine
[15] = tested on: Rattus norvegicus; experiment: Induction of diuresis in Rattus norvegicus albino (rat) assessed as normal saline intake at 20 mg/kg, po measured at 5-18 hr after drug administration by standard Lipschitz method (reference value: 2.50 +/-0.036 ml); assay type: functional
[16] = tested on: Rattus norvegicus; experiment: Induction of diuresis in Rattus norvegicus albino (rat) assessed as normal saline intake at 20 mg/kg, po measured at 0-5 hr after drug administration by standard Lipschitz method (reference value: 2.50 +/-0.036 ml); assay type: functional

Compound | Ratio [1] | Activity [2] [mL] | Activity [3] [mL] | Activity [4] [%] | Activity [5] [mEq/L] | Activity [6] [mEq/L] | Ratio [7] | Ratio [8] | Activity [9] [mEq/L] | Ratio [10] | Activity [11] [%] | Activity [12] [mEq/L] | Activity [13] [mEq/L] | Activity [14] [mEq/L] | Activity [15] [mL] | Activity [16] [mL]
COc1cc(C2CC(c3ccc(Cl)cc3)=NN2C(=O)COc2ccc(C)cc2)ccc1OCC(=O)O (stereo unspecified) | 1.14 | 8.15 | 5.65 | 197.55 | 2.61 | 1.32 | 1.01 | 5.68 | 1.68 | 2 | 284.96 | 1.87 | 3.13 | 1.36 | 2.86 | 2.86
COc1cc(C2CC(c3ccc(O)cc3)=NN2C(=O)c2ccc(Cl)cc2)ccc1OCC(=O)O (stereo unspecified) | 0.74 | 5.21 | 2.5 | 89.28 | 0.87 | 0.45 | 0.45 | 3.66 | 0.95 | 0.9 | 183.45 | 0.56 | 1.95 | 0.46 | 2.84 | 2.84
COc1cc(C2CC(c3ccccc3)=NN2C(=O)c2ccccc2O)ccc1OCC(=O)O (stereo unspecified) | 0.03 | 0.2 | 1.16 | 49.57 | 0.35 | 0.16 | 0.25 | 0.16 | 0.06 | 0.5 | 8.54 | 0.12 | 0.16 | 0.16 | 2.34 | 2.34
COc1cc(C2CC(c3ccc(Cl)cc3)=NN2C(=O)c2ccc(C)cc2)ccc1OCC(=O)O (stereo unspecified) | 1.88 | 12.18 | 5.83 | 223.37 | 1.56 | 0.81 | 1.11 | 9.32 | 2.69 | 2.2 | 466.66 | 2.66 | 4.31 | 0.76 | 2.61 | 2.61
COc1cc(C2CC(c3ccc(O)cc3)=NN2C(=O)COc2ccc(C)cc2)ccc1OCC(=O)O (stereo unspecified) | 0.04 | 0.33 | 1.81 | 62.84 | 0.45 | 0.25 | 0.3 | 0.22 | 0.07 | 0.6 | 11.45 | 0.19 | 0.12 | 0.24 | 2.88 | 2.88
COc1cc(C2CC(c3ccc(Cl)cc3)=NN2C(=O)c2ccc(Cl)cc2)ccc1OCC(=O)O (stereo unspecified) | 1.12 | 7.43 | 6.06 | 226.96 | 2.82 | 1.55 | 1.11 | 5.56 | 1.77 | 2.2 | 278 | 1.76 | 3.26 | 1.94 | 2.67 | 2.67

Reference: ChEMBL document CHEMBL3046926, “Molecular properties prediction, synthesis, and diuretic activity of phenoxy acetic acid bearing pyrazolines” (2013)
